Experimental data taken from patent US11655235B2, “Pyrrolidine and piperidine compounds” (YUHAN CORPORATION, priority 2019, dated 2023).

Legend:
Type in all cases: biochemical
recombinant human DPP8 = biological target: T1, recombinant human DPP8 (Homo sapiens, UniProt Q6V1X1); test: DPP8 inhibition, fluorogenic substrate Z-Ala-Pro-AMC; conditions: 25° C., Z-Ala-Pro-AMC substrate
T1 construct: purchased PBS Bioscience
In short: (§1)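 Enzyme per reaction: 50 ng DPP9, 20 ng DPP8, 10 ng each DPP7 and PREP. Compounds were serially diluted (8 points, up to 0.5% DMSO) and incubated at 25 °C.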

DPP4 = DPP4 (Homo sapiens, UniProt P27487); test: DPP4 inhibition, fluorogenic substrate H-Gly-Pro-AMC; design: purchased R&D Systems; conditions: for IC50: 25° C., H-Gly-Pro-AMC substrate; for inhibition at 1 µM: read-out: hDPP4 inhibition % at 1 μM
recombinant human DPP9 = biological target: T2, recombinant human DPP9 (Homo sapiens, UniProt Q86TI2); test: DPP9 inhibition, fluorogenic substrate H-Gly-Pro-AMC; conditions: 25° C., H-Gly-Pro-AMC substrate
T2 construct: purchased R&D Systems
In short: as §1

recombinant human PREP = biological target: T3, recombinant human PREP (Homo sapiens, UniProt P48147); test: PREP inhibition, fluorogenic substrate Z-Gly-Pro-AMC; conditions: Inhibitory Activity (IC50, nM) PREP, 25° C., Z-Gly-Pro-AMC substrate
T3 construct: purchased R&D System
T3 sequence (P48147 1-710): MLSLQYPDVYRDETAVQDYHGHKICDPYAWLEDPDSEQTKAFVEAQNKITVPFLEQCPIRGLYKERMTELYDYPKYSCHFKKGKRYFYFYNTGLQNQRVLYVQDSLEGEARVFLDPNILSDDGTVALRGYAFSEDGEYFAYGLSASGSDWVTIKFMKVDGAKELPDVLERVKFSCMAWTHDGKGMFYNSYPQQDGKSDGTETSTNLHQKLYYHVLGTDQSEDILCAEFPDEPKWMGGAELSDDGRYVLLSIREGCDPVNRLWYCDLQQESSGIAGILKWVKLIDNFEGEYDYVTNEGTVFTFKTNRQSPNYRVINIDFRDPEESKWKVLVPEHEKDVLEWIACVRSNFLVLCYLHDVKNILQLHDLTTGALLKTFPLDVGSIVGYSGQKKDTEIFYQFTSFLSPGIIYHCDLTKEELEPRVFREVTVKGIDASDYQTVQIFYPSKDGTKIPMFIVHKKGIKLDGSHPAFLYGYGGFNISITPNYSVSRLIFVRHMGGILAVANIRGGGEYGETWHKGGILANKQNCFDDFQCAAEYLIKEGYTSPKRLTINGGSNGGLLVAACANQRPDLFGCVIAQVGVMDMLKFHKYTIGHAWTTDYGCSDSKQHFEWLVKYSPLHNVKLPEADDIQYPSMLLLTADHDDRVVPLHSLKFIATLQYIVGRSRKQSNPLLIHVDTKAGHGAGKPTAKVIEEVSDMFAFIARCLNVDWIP
In short: as §1

recombinant human DPP7 = biological target: T4, recombinant human DPP7 (Homo sapiens, UniProt Q9UHL4); test: DPP7 inhibition, fluorogenic substrate Lys-Pro-AMC
T4 construct: purchased R&D Systems
In short: as §1

Recombinant human FAP = biological target: T5, Recombinant human FAP (Homo sapiens, UniProt Q12884); test: FAP inhibition, fluorogenic substrate Z-Gly-Pro-AMC; conditions: 25° C., Z-Gly-Pro-AMC substrate
T5 construct: purchased R&D systems
T5 sequence (Q12884 1-760): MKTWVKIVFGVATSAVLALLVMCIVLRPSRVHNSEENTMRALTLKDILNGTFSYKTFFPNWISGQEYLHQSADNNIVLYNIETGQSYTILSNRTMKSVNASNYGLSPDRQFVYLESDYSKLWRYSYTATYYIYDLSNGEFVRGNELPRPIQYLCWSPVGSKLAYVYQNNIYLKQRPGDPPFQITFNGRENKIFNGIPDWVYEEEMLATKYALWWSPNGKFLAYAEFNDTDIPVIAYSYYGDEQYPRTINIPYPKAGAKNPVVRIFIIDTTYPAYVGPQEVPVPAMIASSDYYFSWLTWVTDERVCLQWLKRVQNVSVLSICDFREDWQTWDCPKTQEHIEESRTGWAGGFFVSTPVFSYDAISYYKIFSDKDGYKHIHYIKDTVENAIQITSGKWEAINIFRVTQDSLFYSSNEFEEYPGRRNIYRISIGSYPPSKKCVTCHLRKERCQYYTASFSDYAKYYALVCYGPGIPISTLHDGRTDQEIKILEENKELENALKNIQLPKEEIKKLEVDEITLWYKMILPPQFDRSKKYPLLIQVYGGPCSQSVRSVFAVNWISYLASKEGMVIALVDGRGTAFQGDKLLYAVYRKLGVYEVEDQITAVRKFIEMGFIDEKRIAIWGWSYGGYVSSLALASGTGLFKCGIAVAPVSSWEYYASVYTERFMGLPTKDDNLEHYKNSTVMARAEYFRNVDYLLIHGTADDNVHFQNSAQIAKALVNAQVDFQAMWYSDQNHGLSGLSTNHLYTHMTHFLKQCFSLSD
In short: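 Recombinant human FAP, 10 ng per reaction, in 50 mM Tris pH 7.5 with 1 M NaCl and 1 mg/ml BSA at 25° C; substrate Z-Gly-Pro-AMC, ≤0.1% DMSO. AMC fluorescence read at ex 380/em 460 nm; % signal-rate decrease vs no-inhibitor control, 8-point curves fitted to a four-parameter logistic for IC50.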

T2 sequence (Q86TI2 whole entry): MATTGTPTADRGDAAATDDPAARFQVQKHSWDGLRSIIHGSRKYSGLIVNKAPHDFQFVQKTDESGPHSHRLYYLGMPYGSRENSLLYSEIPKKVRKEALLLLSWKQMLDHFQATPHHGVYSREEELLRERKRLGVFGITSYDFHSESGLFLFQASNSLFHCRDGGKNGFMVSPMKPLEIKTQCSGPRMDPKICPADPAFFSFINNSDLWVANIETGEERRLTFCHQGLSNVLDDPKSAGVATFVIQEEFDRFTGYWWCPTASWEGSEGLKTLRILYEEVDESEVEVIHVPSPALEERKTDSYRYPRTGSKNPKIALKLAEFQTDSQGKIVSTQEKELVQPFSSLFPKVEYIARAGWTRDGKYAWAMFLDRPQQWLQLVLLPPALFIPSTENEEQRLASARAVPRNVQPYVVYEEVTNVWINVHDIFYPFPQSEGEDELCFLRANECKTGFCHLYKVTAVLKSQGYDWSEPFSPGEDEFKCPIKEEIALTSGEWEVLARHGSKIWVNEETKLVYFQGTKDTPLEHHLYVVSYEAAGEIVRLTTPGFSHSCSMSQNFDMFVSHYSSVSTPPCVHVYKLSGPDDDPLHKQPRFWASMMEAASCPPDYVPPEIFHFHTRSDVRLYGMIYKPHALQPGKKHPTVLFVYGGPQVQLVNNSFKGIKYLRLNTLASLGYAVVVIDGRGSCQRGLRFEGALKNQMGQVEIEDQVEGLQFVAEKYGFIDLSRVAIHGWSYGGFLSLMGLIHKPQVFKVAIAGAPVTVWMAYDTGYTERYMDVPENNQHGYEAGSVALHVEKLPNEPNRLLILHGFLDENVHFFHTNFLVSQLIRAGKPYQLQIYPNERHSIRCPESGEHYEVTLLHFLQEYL
T1 sequence (Q6V1X1 whole entry): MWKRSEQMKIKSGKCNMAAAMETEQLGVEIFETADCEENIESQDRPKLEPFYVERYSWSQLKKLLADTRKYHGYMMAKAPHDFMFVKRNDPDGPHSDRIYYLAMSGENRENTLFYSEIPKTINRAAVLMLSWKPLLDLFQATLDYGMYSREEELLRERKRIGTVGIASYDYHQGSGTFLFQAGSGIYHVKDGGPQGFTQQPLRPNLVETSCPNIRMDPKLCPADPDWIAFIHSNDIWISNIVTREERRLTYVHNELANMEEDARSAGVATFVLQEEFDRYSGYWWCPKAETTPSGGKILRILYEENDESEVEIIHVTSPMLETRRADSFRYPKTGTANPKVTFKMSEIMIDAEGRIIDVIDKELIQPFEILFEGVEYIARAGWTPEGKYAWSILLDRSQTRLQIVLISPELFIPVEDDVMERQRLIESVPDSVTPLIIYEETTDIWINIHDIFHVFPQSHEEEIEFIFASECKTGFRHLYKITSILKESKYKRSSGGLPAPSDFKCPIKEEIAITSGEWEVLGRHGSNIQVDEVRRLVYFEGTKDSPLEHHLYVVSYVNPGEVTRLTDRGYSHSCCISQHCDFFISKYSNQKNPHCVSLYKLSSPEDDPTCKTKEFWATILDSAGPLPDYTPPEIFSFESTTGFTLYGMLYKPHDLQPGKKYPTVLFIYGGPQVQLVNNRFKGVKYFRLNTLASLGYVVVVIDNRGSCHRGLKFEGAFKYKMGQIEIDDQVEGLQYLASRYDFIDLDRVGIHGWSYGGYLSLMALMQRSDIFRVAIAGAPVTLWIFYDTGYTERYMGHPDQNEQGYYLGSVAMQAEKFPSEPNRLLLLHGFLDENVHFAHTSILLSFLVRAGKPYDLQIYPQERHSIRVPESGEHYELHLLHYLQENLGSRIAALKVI
Sequence of DPP4 (P27487 whole entry): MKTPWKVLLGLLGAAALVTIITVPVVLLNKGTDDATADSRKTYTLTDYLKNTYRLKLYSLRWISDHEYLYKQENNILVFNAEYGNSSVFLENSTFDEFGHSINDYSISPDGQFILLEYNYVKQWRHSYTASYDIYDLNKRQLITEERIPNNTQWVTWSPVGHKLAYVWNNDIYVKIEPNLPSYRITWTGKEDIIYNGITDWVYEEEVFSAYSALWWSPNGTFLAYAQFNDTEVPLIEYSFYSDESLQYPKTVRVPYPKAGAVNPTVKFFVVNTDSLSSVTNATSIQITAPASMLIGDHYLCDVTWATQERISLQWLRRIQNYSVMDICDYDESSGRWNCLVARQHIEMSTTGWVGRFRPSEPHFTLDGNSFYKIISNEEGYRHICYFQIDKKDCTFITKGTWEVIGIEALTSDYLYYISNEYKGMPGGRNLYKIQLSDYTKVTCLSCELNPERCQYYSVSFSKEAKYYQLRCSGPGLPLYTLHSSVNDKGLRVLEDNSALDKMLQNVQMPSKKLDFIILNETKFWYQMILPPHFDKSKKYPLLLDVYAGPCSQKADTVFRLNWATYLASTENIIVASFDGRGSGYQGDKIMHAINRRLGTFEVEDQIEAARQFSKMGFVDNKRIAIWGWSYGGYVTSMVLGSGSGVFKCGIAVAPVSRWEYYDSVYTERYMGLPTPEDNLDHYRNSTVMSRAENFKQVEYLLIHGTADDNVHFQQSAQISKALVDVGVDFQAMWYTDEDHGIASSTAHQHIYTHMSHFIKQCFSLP

SMILES | IC50 (recombinant human DPP8) [µM] | IC50 (DPP4) [µM] | IC50 (recombinant human DPP9) [µM] | IC50 (recombinant human PREP) [nM] | IC50 (recombinant human DPP7) [µM] | IC50 (Recombinant human FAP) [µM] | hDPP4 inhibition % at 1 μM (DPP4) | inhibition at 1 µM (DPP4) [%]
N#C[C@@H]1CC(F)(F)CN1C(=O)CN1CC[C@H](Oc2cccc3[nH]c(=O)ccc23)C1 [Example 108, (S)-4,4-difluoro-1-(2-((S)-3-((2-oxo-1,2-dihydroquinolin-5-yl)oxy)pyrrolidin-1-yl)acetyl)pyrrolidine-2-carbonitrile] | 6.68 | > 1 | 6.3 | 3150 | 0.0076 | 0.00215 | – | –
N#C[C@@H]1CCCN1C(=O)CN1CCC(Nc2ccnc3ccccc23)CC1 [Example 111, (S)-1-(2-(4-(quinolin-4-ylamino)piperidin-1-yl)acetyl)pyrrolidine-2-carbonitrile] | 31.9 | – | 21.1 | 4170 | 0.503 | 0.00828 | No inhibition** | –
N#C[C@@H]1C[C@H](F)CN1C(=O)CN1CCC(Nc2cccc3ncccc23)CC1 [Example 113, (2S,4S)-4-fluoro-1-(2-(4-(quinolin-5-ylamino)piperidin-1-yl)acetyl)pyrrolidine-2-carbonitrile] | 2.41 | – | 3.97 | 2930 | 0.342 | 0.00165 | – | 20
N#C[C@@H]1C[C@@H]2C[C@@H]2N1C(=O)CN1CCC(Nc2cccc3ncccc23)CC1 [Example 115, (1S,3S,5S)-2-(2-(4-(quinolin-5-ylamino)piperidin-1-yl)acetyl)-2-azabicyclo[3.1.0]hexane-3-carbonitrile] | 52.1 | – | 45.1 | > 100000 | 5.74 | 0.00564 | – | 1.4
N#C[C@@H]1CCCN1C(=O)CN1CCC(Oc2ccnc3ccccc23)CC1 [Example 118, (S)-1-(2-(4-(quinolin-4-yloxy)piperidin-1-yl)acetyl)pyrrolidine-2-carbonitrile] | 85.4 | – | > 100 | 1040 | 10.2 | 0.00234 | No inhibition** | –

Other lines, results leading:

IC50 (recombinant human DPP8) [µM] | IC50 (DPP4) [µM] | IC50 (recombinant human DPP9) [µM] | IC50 (recombinant human PREP) [nM] | IC50 (recombinant human DPP7) [µM] | IC50 (Recombinant human FAP) [µM] | hDPP4 inhibition % at 1 μM (DPP4) | inhibition at 1 µM (DPP4) [%] | SMILES
11.8 | > 1 | 12.5 | 5230 | 0.0635 | 0.00121 | – | – | N#C[C@@H]1CC(F)(F)CN1C(=O)CN1CC[C@H](Oc2cccc3ncccc23)C1 [Example 105, (S)-4,4-difluoro-1-(2-((S)-3-(quinolin-5-yloxy)pyrrolidin-1-yl)acetyl)pyrrolidine-2-carbonitrile]
8.28 | > 1 | 10.3 | 4310 | 0.0416 | 0.00188 | – | – | N#C[C@@H]1CC(F)(F)CN1C(=O)CN1CC[C@H](Oc2cccc3cnccc23)C1 [Example 106, (S)-4,4-difluoro-1-(2-((S)-3-(isoquinolin-5-yloxy)pyrrolidin-1-yl)acetyl)pyrrolidine-2-carbonitrile]
9.89 | > 1 | 13.5 | 6500 | 0.0187 | 0.00367 | – | – | N#C[C@@H]1CC(F)(F)CN1C(=O)CN1CC[C@H](Oc2ccnc3cc(Cl)ccc23)C1 [Example 107, (S)-1-(2-((S)-3-((7-chloroquinolin-4-yl)oxy)pyrrolidin-1-yl)acetyl)-4,4-difluoropyrrolidine-2-carbonitrile]
2.17 | > 1 | 4.43 | 4140 | 0.0383 | 0.0018 | – | – | N#C[C@@H]1CC(F)(F)CN1C(=O)CN1CC[C@H](Oc2ccc(Cl)c3cccnc23)C1 [Example 109, (S)-1-(2-((S)-3-((5-chloroquinolin-8-yl)oxy)pyrrolidin-1-yl)acetyl)-4,4-difluoropyrrolidine-2-carbonitrile]
1.53 | – | 3.4 | 31000 | < 0.03 | 0.00094 | – | 15.7 | N#C[C@@H]1CC(F)(F)CN1C(=O)CN1CCC(Nc2cccc3ncccc23)CC1 [Example 114, (S)-4,4-difluoro-1-(2-(4-(quinolin-5-ylamino)piperidin-1-yl)acetyl)pyrrolidine-2-carbonitrile]
